# System: Plasmodium berghei
# Test: Luciferase/luciferin-expressing antifolate-resistant parasites were used to infect a culture of HepG2 cells that were pre-incubated with compounds. Infected hepatocytes emit light due to the luciferase reaction. Assay results are presented as the percent inhibition of light emission compared to control. […]
# Format: functional
# Details: sporozoite; for IC90: read-out: LUCIFERASE INFECTION ASSAY - IC90
SMILES,IC90,other results
COCCCN=C(S)NNC(=O)c1ccc(C(C)(C)C)cc1,> 10.2 µM,"IC50 (PBLUC_HILL_SLOPE 2.41, PBLUC_R_SQUARED 0.0684, read-out: LUCIFERASE INFECTION ASSAY - IC50): 8.61 µM"
CCC(C)(C)c1ccc(Oc2ccc(NC(=O)COC(=O)C3=COCCO3)cc2)cc1,> 10 µM,"IC50 (PBLUC_HILL_SLOPE 2.38, PBLUC_R_SQUARED 0.497, read-out: LUCIFERASE INFECTION ASSAY - IC50): 5.8 µM"
Cc1cc(C(=O)COC(=O)c2ccccc2O)c(C)n1CC1CCCO1 (stereo not given),7.71 µM,"IC50 (PBLUC_HILL_SLOPE 2.39, PBLUC_R_SQUARED 0.567, read-out: LUCIFERASE INFECTION ASSAY - IC50): 3.08 µM"
O=C(O)c1cnc2cc3c(cc2c1O)OCCO3,> 10 µM,"IC50 (PBLUC_HILL_SLOPE 2.36, 2.10, PBLUC_R_SQUARED 0.249, 0.136, read-out: LUCIFERASE INFECTION ASSAY - IC50): 7.92 µM"
Cc1cc(C(C)(C)C)cc(C)c1CCNC(=O)NCCNC(=O)c1ccco1,> 10 µM,"IC50 (PBLUC_HILL_SLOPE 2.38, PBLUC_R_SQUARED 0.642, read-out: LUCIFERASE INFECTION ASSAY - IC50): 5.63 µM"
CC(c1ccc(-n2cncn2)cc1)N(C)S(=O)(=O)N1CCc2ccccc2C1 (stereo not given),> 10 µM,"IC50 (PBLUC_HILL_SLOPE 2.44, PBLUC_R_SQUARED 0.756, read-out: LUCIFERASE INFECTION ASSAY - IC50): 6.27 µM"
O=C(Nc1ncccc1O)c1ccc(Cn2cccn2)cc1,3.1 µM,"IC50 (PBLUC_HILL_SLOPE 2.35, PBLUC_R_SQUARED 0.554, read-out: LUCIFERASE INFECTION ASSAY - IC50): 1.22 µM"
Cc1oc2c(c1C(=O)N1CCN(c3ccc(F)cc3)CC1)C(=O)c1ccccc1C2=O,> 10 µM,"IC50 (PBLUC_HILL_SLOPE 2.38, PBLUC_R_SQUARED 0.395, read-out: LUCIFERASE INFECTION ASSAY - IC50): 4.13 µM"
CN1CCN(c2ccc(-c3cn4c(-c5cccc(OC(F)(F)F)c5)cnc4cn3)cn2)CC1,> 7.26 µM,"IC50 (PBLUC_HILL_SLOPE 2.39, PBLUC_R_SQUARED 0.449, read-out: LUCIFERASE INFECTION ASSAY - IC50): 5.98 µM"
O=C(Cn1cc(C(F)(F)F)ccc1=O)N/N=C/c1c2ccccc2cc2ccccc12,> 10 µM,"IC50 (PBLUC_HILL_SLOPE 2.42, PBLUC_R_SQUARED 0.423, read-out: LUCIFERASE INFECTION ASSAY - IC50): 5.16 µM"
Cc1ccc(NNC(=O)c2cc3ccccc3o2)cc1Cl,> 10 µM,"IC50 (PBLUC_HILL_SLOPE 2.35, PBLUC_R_SQUARED 0.383, read-out: LUCIFERASE INFECTION ASSAY - IC50): 6.24 µM"
C/C(=N\n1c(-c2ccc(OC(F)F)cc2)cs/c1=N\CCc1ccccc1)c1ccc2c(c1)OCO2,> 10 µM,"IC50 (PBLUC_HILL_SLOPE 2.39, PBLUC_R_SQUARED 0.524, read-out: LUCIFERASE INFECTION ASSAY - IC50): 9.18 µM"
Cc1ccc(C)n1-c1nc2cc(C(=O)NC3CC3)ccc2s1,7.33 µM,"IC50 (PBLUC_HILL_SLOPE 2.39, PBLUC_R_SQUARED 0.619, read-out: LUCIFERASE INFECTION ASSAY - IC50): 2.93 µM"
COc1ccc(S(=O)(=O)N2[C@@H]3CC[C@@H](C3)[C@H]2c2nc3c(OCC4CCOCC4)cccc3[nH]2)c(OC)c1,> 10 µM,"IC50 (PBLUC_HILL_SLOPE 2.43, PBLUC_R_SQUARED 0.162, read-out: LUCIFERASE INFECTION ASSAY - IC50): 8.16 µM"
Cc1nc(C(=O)N2CCc3c(c(C(=O)NC4CCCC4)nn3CC(C)C)C2)cs1,2.9 µM,"IC50 (PBLUC_HILL_SLOPE 2.42, PBLUC_R_SQUARED 0.681, read-out: LUCIFERASE INFECTION ASSAY - IC50): 1.17 µM"
O=C1Nc2ccccc2/C1=C/c1cccn1-c1ccc(C(F)(F)F)cc1,> 9.31 µM,"IC50 (PBLUC_HILL_SLOPE 2.37, PBLUC_R_SQUARED 0.071, read-out: LUCIFERASE INFECTION ASSAY - IC50): 5.82 µM"
O=C(NC1CC1)c1ccc(N2CCN(C(c3ccc(F)cc3)c3ccc(F)cc3)CC2)nc1,> 10 µM,"IC50 (PBLUC_HILL_SLOPE 2.42, PBLUC_R_SQUARED 0.524, read-out: LUCIFERASE INFECTION ASSAY - IC50): 4.87 µM"
COc1cc(C(=O)Nc2ccc(C(=O)NC3CC3)cc2)cc(Cl)c1OC(C)C,> 10 µM,"IC50 (PBLUC_HILL_SLOPE 2.4, PBLUC_R_SQUARED 0.128, read-out: LUCIFERASE INFECTION ASSAY - IC50): 6.06 µM"
Cc1onc(-c2ccccc2Cl)c1C(=O)ON=C1C2CC3CC(C2)CC1C3,> 8.57 µM,"IC50 (PBLUC_HILL_SLOPE 2.42, PBLUC_R_SQUARED 0.273, read-out: LUCIFERASE INFECTION ASSAY - IC50): 5.03 µM"
CCCCN1C(=O)/C(=C\c2ccc(O)c(OCC)c2)NC1=S,> 10 µM,"IC50 (PBLUC_HILL_SLOPE 2.35, PBLUC_R_SQUARED 0.305, read-out: LUCIFERASE INFECTION ASSAY - IC50): 6.33 µM"

SMILES,IC90,other results
CN(C)c1ccc(-c2cnn3c(Nc4ccc(Oc5ccccc5)cc4)ccnc23)cc1,> 7.83 µM,"IC50 (PBLUC_HILL_SLOPE 2.36, PBLUC_R_SQUARED 0.164, read-out: LUCIFERASE INFECTION ASSAY - IC50): 6.65 µM"
Cc1nc(NCCCn2ccnc2)c2c(-c3cccs3)csc2n1,> 10 µM,"IC50 (PBLUC_HILL_SLOPE 2.38, PBLUC_R_SQUARED 0.267, read-out: LUCIFERASE INFECTION ASSAY - IC50): 6.39 µM"
COc1ccc(C(CNC(=O)Cc2coc3c(C)c(C)ccc23)N(C)C)cc1 (stereo not given),3.36 µM,"IC50 (PBLUC_HILL_SLOPE 2.38, PBLUC_R_SQUARED 0.44, read-out: LUCIFERASE INFECTION ASSAY - IC50): 1.33 µM"
Cc1nc(-c2ccc3c(c2)CCN3C(=O)C2(C)Cc3ccccc3C(=O)O2)cs1 (stereo not given),> 10 µM,"IC50 (PBLUC_HILL_SLOPE 2.39, PBLUC_R_SQUARED 0.602, read-out: LUCIFERASE INFECTION ASSAY - IC50): 4.47 µM"
CCCCC1(COC(=O)c2ccc(C(C)(C)C)cc2)C(=O)N(c2ccccc2)N(c2ccccc2)C1=O,> 6.62 µM,"IC50 (PBLUC_HILL_SLOPE 2.41, PBLUC_R_SQUARED 0.52, read-out: LUCIFERASE INFECTION ASSAY - IC50): 4.52 µM"
CCOc1ccc(NC(=O)c2ccc(F)cc2)cc1S(=O)(=O)N(C)C,> 10 µM,"IC50 (PBLUC_HILL_SLOPE 2.43, PBLUC_R_SQUARED 0.406, read-out: LUCIFERASE INFECTION ASSAY - IC50): 8.56 µM"
CC(C)Cn1c(-c2ccccc2)nc2c(c(=O)c3ccccc3n2C)c1=O,> 9.18 µM,"IC50 (PBLUC_HILL_SLOPE 2.45, PBLUC_R_SQUARED 0.0531, read-out: LUCIFERASE INFECTION ASSAY - IC50): 6.49 µM"
O=C(Nc1ccc([N+](=O)[O-])cc1)Nc1cccnc1Cl,2.05 µM,"IC50 (PBLUC_HILL_SLOPE 2.35, PBLUC_R_SQUARED 0.752, read-out: LUCIFERASE INFECTION ASSAY - IC50): 0.807 µM"
CCn1c(=O)[nH]c(=O)c2cc(C(=O)Nc3ccc(Oc4ccccc4)cc3)cnc21,> 10 µM,"IC50 (PBLUC_HILL_SLOPE 2.4, PBLUC_R_SQUARED 0.0614, read-out: LUCIFERASE INFECTION ASSAY - IC50): 6.87 µM"
CC1(C(=O)NCc2cccnc2)CCN1Cc1ccccc1Cl (stereo not given),> 10 µM,"IC50 (PBLUC_HILL_SLOPE 2.38, PBLUC_R_SQUARED 0.474, read-out: LUCIFERASE INFECTION ASSAY - IC50): 4.27 µM"
C=c1c(Nc2cccc(C(F)(F)F)c2)cc(Nc2cccc(C(F)(F)F)c2)c(O)c1=C,> 10 µM,"IC50 (PBLUC_HILL_SLOPE 2.41, PBLUC_R_SQUARED 0.317, read-out: LUCIFERASE INFECTION ASSAY - IC50): 7.29 µM"
CC(C)(C)C(=O)Nc1ccc([N+](=O)[O-])cc1C#N,4.31 µM,"IC50 (PBLUC_HILL_SLOPE 2.44, PBLUC_R_SQUARED 0.671, read-out: LUCIFERASE INFECTION ASSAY - IC50): 1.75 µM"
O=C(CN1CCN(Cc2cc(=O)oc3cc4c(cc23)CCC4)CC1)Nc1ccc(Cl)c(C(F)(F)F)c1,> 10 µM,"IC50 (PBLUC_HILL_SLOPE 2.35, PBLUC_R_SQUARED 0.537, read-out: LUCIFERASE INFECTION ASSAY - IC50): 5.82 µM"
Cn1cc(-c2cnc3cnc(-c4ccccc4)cn23)cn1,5.95 µM,"IC50 (PBLUC_HILL_SLOPE 2.38, PBLUC_R_SQUARED 0.622, read-out: LUCIFERASE INFECTION ASSAY - IC50): 2.36 µM"
O=c1nc(Nc2ccc(Cl)cc2)[nH]nc1Cc1ccc(Cl)cc1,5.05 µM,"IC50 (PBLUC_HILL_SLOPE 2.36, PBLUC_R_SQUARED 0.336, read-out: LUCIFERASE INFECTION ASSAY - IC50): 1.99 µM"
Oc1c(Br)cc(Cl)cc1/C=N/NC(=S)NC1CC1,> 9.47 µM,"IC50 (PBLUC_HILL_SLOPE 2.42, PBLUC_R_SQUARED 0.376, read-out: LUCIFERASE INFECTION ASSAY - IC50): 4.15 µM"
O=C(CC1S/C(=N\c2ccccn2)NC1=O)Nc1ccc(Cl)cc1 (stereo not given),> 10 µM,"IC50 (PBLUC_HILL_SLOPE 2.4, PBLUC_R_SQUARED 0.685, read-out: LUCIFERASE INFECTION ASSAY - IC50): 5.95 µM"
CC(=O)c1ccc(NC(=O)c2cc(-c3cc(C)ccc3C)nc3ccccc23)cc1,> 8.37 µM,"IC50 (PBLUC_HILL_SLOPE 2.38, PBLUC_R_SQUARED 0.305, read-out: LUCIFERASE INFECTION ASSAY - IC50): 4.56 µM"
COc1ccc(C)cc1NC(=O)c1ccc(NC(=O)Nc2ccccc2)s1,> 10 µM,"IC50 (PBLUC_HILL_SLOPE 2.41, PBLUC_R_SQUARED 0.229, read-out: LUCIFERASE INFECTION ASSAY - IC50): 7.11 µM"
O=C(Nc1ccc(OC(F)(F)F)cc1)c1cc([N+](=O)[O-])c[nH]c1=O,> 10 µM,"IC50 (PBLUC_HILL_SLOPE 2.36, PBLUC_R_SQUARED 0.402, read-out: LUCIFERASE INFECTION ASSAY - IC50): 5.59 µM"
